The values that follow are results of earlier work, collected in US20100239681A1, “Controlled Release Particulates Containing Water-Insoluble Drug” (Biokey, Inc., priority 2009, published 2010).

For the data set the following is noted: at 25° C.

With `Oc1ccc(C=Cc2cc(O)cc(O)c2)cc1` [resveratrol], the water solubility is reported as under 0.03 g/L.
